In paper PMC6151589, “Identification of Optically Active Pyrimidine Derivatives as Selective 5-HT2C Modulators” (Molecules : A Journal of Synthetic Chemistry and Natural …, 2017):

Experiments:
Experiment in all cases: biochemical
Set-up in all cases: species or system HEK293 or CHO; competitive radioligand binding on crude membranes, filtration and scintillation counting
5-HT1D = target: T1, 5-HT1D (Homo sapiens, UniProt P28221)
T1 construct: gene HTR1D; human recombinant receptor, crude membranes of HEK293 or CHO cells
Experimental: (§1) Eleven dilutions (5 × assay concentration) of the test and reference compounds (Table S1) were prepared in standard binding buffer (50 mM tris(hydroxymethyl)-aminomethane-HCl (Tris-HCl), 10 mM MgCl2, 1 mM ethylenediaminetetraacetate (EDTA), pH 7.4) by serial dilution: 0.05 nM, 0.5 nM, 1.5 nM, 5 nM, 15 nM, 50 nM, 150 nM, 500 nM, 1.5 μM, 5 μM, and 50 μM. The radioligand (Table S3) was diluted to five times the assay concentration in standard binding buffer. Aliquots ([…]) of the radioligand were dispensed into the wells of a 96-well plate containing […] of standard binding buffer. Triplicate aliquots ([…]) of the test and reference compound dilutions were then added. Finally, crude membrane fractions ([…]) of cells (HEK293 or CHO) expressing human recombinant receptors were dispensed into each well. A total of […] of the reaction mixtures was incubated at room temperature and shielded from light for 1.5 h, and was then harvested by rapid filtration onto Whatman GF/B glass fiber filters presoaked with 0.3% polyethyleneimine, by using a 96-well Brandel harvester (Gaithersburg, MD, USA). Four rapid washes were performed with chilled standard binding buffer (500 mL) to decrease nonspecific binding. Filters were placed in 6 mL scintillation tubes and allowed to dry overnight. The next day, 4-mL of EcoScint scintillation cocktail (National Diagnostics) was added to each tube. The tubes were capped, labeled, and counted by […] scintillation counting. The filter mats were dried, and the scintillant was melted onto the filters, then the radioactivity retained on the filters was counted in a Microbeta scintillation counter. The IC50 values were obtained by using the Prism 4.0 program (GraphPad Software, La Jolla, CA, USA) and were converted into Ki values. Each compound was tested at least in triplicate. With each enantiomer (R)- or (S)-5d and 5e in hand, the optically active pyrimidine derivatives 4d–4e were synthesized following the same reaction sequences (Scheme 3). Finally, compounds 4d and 4e were assessed for their binding affinity to 5-HT2 receptor subtypes by radioligand binding assays. […] A further evaluation of these compounds for other 5-HT receptor subtypes was also performed and is provided in the supplementary data (Table S2). […] Considering the potencies and selectivities of 4, we can conclude that (R,R)-4e would be a viable candidate for a selective 5-HT2C modulator.

5-HT1E = target: T2, 5-HT1E (Homo sapiens, UniProt P28566); settings: for Ki: read-out: Ki (nM), 1E
T2 construct: gene HTR1E; human recombinant receptor, crude membranes of HEK293 or CHO cells
Experimental: as §1

5-HT2B = target: T3, 5-HT2B (Homo sapiens, UniProt P41595)
T3 construct: gene HTR2B; human recombinant receptor; crude membrane fractions of transfected HEK293 or CHO cells
Experimental: as §1

5-HT6 = target: T4, 5-HT6 (Homo sapiens, UniProt P50406); settings: for Ki: read-out: Ki (nM), 6
T4 construct: gene HTR6; human recombinant receptor, crude membranes of HEK293 or CHO cells
Experimental: as §1

5-HT1B = target: T5, 5-HT1B (Homo sapiens, UniProt P28222)
T5 construct: gene HTR1B; human recombinant receptor, crude membranes of HEK293 or CHO cells
Experimental: as §1

5-HT5A = target: T6, 5-HT5A (Homo sapiens, UniProt P47898)
T6 construct: gene HTR5A; human recombinant receptor, crude membranes of HEK293 or CHO cells
Experimental: as §1

5-HT3 = target: T7, 5-HT3 (Homo sapiens, UniProt P46098); settings: for Ki: read-out: Ki (nM), 3
T7 construct: gene HTR3A; human recombinant receptor, crude membranes of HEK293 or CHO cells
T7 sequence (P46098 1-478): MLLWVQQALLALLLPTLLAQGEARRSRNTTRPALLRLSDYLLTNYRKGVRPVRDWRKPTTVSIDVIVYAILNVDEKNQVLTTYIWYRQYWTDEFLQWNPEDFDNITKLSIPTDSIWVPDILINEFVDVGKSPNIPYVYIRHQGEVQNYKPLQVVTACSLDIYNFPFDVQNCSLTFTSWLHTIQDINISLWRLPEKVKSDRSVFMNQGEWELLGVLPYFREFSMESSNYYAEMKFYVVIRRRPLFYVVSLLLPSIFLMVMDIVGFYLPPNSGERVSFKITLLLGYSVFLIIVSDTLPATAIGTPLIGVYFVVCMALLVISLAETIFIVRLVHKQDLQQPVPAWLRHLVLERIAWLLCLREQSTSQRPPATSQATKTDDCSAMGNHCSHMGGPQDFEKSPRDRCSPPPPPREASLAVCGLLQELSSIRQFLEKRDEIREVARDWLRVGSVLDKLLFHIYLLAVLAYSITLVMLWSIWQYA
Experimental: as §1

T4 sequence (P50406 whole entry): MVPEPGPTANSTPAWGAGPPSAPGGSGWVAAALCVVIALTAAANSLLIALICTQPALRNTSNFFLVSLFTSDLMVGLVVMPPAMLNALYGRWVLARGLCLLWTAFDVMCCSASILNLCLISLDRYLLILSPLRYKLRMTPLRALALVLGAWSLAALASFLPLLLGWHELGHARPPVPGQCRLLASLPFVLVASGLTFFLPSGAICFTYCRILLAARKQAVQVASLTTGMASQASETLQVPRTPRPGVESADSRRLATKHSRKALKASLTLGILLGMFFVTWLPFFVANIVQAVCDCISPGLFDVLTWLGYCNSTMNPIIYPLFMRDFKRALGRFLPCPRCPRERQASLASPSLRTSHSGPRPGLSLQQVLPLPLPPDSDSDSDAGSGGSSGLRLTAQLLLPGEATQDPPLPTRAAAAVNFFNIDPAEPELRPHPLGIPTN
T5 sequence (P28222 whole entry): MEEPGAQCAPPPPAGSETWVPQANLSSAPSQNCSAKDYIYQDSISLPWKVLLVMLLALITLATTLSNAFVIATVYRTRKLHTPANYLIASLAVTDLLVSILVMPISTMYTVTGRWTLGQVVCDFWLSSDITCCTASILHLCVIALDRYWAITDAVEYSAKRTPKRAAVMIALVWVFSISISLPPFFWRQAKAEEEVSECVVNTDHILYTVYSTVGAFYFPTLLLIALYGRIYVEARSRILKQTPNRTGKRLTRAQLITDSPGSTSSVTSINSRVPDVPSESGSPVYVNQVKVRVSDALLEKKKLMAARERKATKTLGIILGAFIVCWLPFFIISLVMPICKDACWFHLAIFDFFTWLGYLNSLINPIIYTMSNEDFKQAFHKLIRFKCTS
T6 sequence (P47898 whole entry): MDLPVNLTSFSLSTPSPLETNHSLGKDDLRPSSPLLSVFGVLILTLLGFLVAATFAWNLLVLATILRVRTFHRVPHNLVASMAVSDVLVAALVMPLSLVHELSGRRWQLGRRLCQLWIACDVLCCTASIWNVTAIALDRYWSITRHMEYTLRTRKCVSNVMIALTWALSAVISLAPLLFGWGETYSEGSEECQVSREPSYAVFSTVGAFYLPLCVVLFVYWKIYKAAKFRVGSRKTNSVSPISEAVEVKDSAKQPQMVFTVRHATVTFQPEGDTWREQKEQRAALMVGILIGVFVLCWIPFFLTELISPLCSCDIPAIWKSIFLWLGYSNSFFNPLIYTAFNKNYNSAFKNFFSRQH
T3 sequence (P41595 whole entry): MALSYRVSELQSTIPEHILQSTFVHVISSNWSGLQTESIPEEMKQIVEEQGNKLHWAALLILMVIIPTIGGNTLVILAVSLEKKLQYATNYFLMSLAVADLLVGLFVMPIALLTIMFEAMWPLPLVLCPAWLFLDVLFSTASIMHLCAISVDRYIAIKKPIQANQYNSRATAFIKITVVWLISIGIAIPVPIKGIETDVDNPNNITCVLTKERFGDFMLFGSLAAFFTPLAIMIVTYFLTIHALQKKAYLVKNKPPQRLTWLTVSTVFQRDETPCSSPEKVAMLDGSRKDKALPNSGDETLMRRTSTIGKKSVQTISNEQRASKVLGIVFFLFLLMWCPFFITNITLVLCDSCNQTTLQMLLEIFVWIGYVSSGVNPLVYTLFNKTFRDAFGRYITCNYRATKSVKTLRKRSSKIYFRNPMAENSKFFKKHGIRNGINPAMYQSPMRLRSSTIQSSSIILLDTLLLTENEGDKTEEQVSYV
T2 sequence (P28566 whole entry): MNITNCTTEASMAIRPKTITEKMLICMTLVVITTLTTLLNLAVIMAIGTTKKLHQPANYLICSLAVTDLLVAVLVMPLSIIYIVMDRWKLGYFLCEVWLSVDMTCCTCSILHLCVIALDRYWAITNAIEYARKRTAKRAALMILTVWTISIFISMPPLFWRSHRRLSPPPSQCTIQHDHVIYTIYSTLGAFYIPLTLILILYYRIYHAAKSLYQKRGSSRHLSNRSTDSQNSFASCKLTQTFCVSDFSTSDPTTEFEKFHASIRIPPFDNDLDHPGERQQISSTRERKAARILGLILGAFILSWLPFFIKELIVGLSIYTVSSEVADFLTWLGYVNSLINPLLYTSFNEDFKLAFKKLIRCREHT
T1 sequence (P28221 whole entry): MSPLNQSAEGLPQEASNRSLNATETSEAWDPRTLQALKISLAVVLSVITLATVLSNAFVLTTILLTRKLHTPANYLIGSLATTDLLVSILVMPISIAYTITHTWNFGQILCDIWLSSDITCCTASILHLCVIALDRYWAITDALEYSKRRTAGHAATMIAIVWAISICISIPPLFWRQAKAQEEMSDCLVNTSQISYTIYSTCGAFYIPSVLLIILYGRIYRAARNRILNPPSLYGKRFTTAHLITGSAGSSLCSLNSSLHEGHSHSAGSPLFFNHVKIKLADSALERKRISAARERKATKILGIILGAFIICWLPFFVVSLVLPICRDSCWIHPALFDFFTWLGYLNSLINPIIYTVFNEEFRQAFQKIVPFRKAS

Row | Compound | inhibition at 10 µM (5-HT1D) | inhibition at 10 µM (5-HT1E) | Ki (5-HT1E) | inhibition at 10 µM (5-HT2B) | inhibition at 10 µM (5-HT6) | Ki (5-HT6) | inhibition at 10 µM (5-HT1B) | inhibition at 10 µM (5-HT5A) | inhibition at 10 µM (5-HT3) | Ki (5-HT3) | Ki (5-HT1D; read-out: Ki (nM), 1D) | Ki (5-HT1B; read-out: Ki (nM), 1B)
1 | C[C@@H]1CNCCN1c1ncc(F)c(O[C@H](C)c2cccc(F)c2)n1 [(R,R)-4d, 5-Fluoro-4-((R)-1-(3-fluorophenyl)ethoxy)-2-((R)-2-methylpiperazin-1-yl)pyrimidine] | -6.8% | 67.5% | 1160 nM | 100% | 95.7% | 57 nM | 27.7% | 28.1% | 89.4% | 242 nM | – | –
2 | C[C@@H]1CNCCN1c1ncc(F)c(O[C@H](C)c2ccc(F)cc2)n1 [(R,R)-4e, 5-Fluoro-4-((R)-1-(4-fluorophenyl)ethoxy)-2-((R)-2-methylpiperazin-1-yl)pyrimidine] | -7.7% | 42.7% | – | 99.6% | 97.4% | 17 nM | 6.4% | 26.7% | 87.8% | 242 nM | – | –
3 | C[C@H](Oc1nc(N2CCNC[C@H]2C)ncc1F)c1cccc(F)c1 [(S,R)-4d, 5-Fluoro-4-((S)-1-(3-fluorophenyl)ethoxy)-2-((R)-2-methylpiperazin-1-yl)pyrimidine] | 10.3% | 29.5% | – | – | 91.6% | 70 nM | 3% | 22.8% | 78.6% | 501 nM | – | –
4 | C[C@H](Oc1nc(N2CCNC[C@H]2C)ncc1F)c1ccc(F)cc1 [(S,R)-4e, 5-Fluoro-4-((S)-1-(4-fluorophenyl)ethoxy)-2-((R)-2-methylpiperazin-1-yl)pyrimidine] | 40.4% | – | – | 95.3% | 86.1% | 116 nM | 17.9% | 5.2% | 70.1% | 1000 nM | – | –
5 | C[C@H](Cc1cccc(F)c1)Oc1nc(N2CCNC[C@H]2C)ncc1F [compound 3, pyrimidine analogue 3] | 78.3% | 65.6% | 1160 nM | 97.4% | 93.8% | 43 nM | 55.1% | 37.4% | 75% | 241 nM | 542 nM | 1780 nM
